How the values were obtained:
Rattus norvegicus [1] = assay: Compound was tested for diarrheagenic activity in rats after intracolonic administration (I.C); format: functional
Rattus norvegicus [2] = assay: Compound was tested for diarrheagenic activity in rats after intragastric administration (I.G); format: functional
Rattus norvegicus [3] = assay: Compound was tested for diarrheagenic activity in rats after intrajejuna administration (I.J); format: functional
Rattus norvegicus [4] = organism: Rattus norvegicus; assay: Compound was tested for mucosal protective activity against indomethacin-induced gastric damage in rats; format: functional, Stomach
Rattus norvegicus [5] = organism: Rattus norvegicus; assay: Compound was tested for mucosal protective activity against indomethacin-induced intestinal damage in rats; format: functional
Rattus norvegicus [6] = organism: Rattus norvegicus; assay: Compound was tested for mucosal protective activity in rats using 4 hr EtOH model; format: functional

For CCCCC(C)(O)C/C=C/[C@H]1[C@H](O)CC(=O)[C@@H]1CCCCCCC(=O)OC (stereo partly specified) [MISOPROSTOL], the ED50 (Rattus norvegicus [1]) was 97 (ug of misoprostol) kg-1, the ED50 (Rattus norvegicus [2]) was 265 (ug of misoprostol) kg-1 and the ED50 (Rattus norvegicus [3]) was 534 (ug of misoprostol) kg-1. The ED50 (Rattus norvegicus [4]) was 14 (ug of misoprostol) kg-1, the ED50 (Rattus norvegicus [5]) was 294 (ug of misoprostol) kg-1 and the ED50 (Rattus norvegicus [6]) was 525 (ug of misoprostol) kg-1.

From ChEMBL document CHEMBL1126983, “Catalytic functionalization of polymers: a novel approach to site specific delivery of misoprostol to the stomach” (1993)
